Experimental data published in patent US20180028480A1, “METHODS OF REDUCING OR PREVENTING OXIDATIVE MODIFICATION OF MEMBRANE POLYUNSATURATED FATTY ACIDS” (Amarin Pharmaceuticals Ireland Limited, priority 2015, published 2018).

Legend:
[1] = Small angle x-ray diffraction of glucose-treated model membranes: structure and cholesterol domains (Example 4); settings: for effect on membrane structure compared to control: 0 hours, 1:30 drug-to-phospholipid mole ratio, glucose 200 mg/dL
Description: Multilamellar vesicles (MLVs) were prepared as binary mixtures of DLPC (1.0 or 2.5 mg total phospholipid per sample) and cholesterol at a fixed cholesterol-to-phospholipid (C/P) mole ratio of 0.6:1. Component lipids (in chloroform) were transferred to 13×100 mm borosilicate culture tubes and combined with vehicle (ethanol) or an equal volume of fatty acid, vitamin E, or ATM stock solutions, each adjusted to achieve desired treatment concentrations. Samples were shell-dried under nitrogen gas and placed under vacuum for 1 h to remove residual solvent. After desiccation, each sample was resuspended in 1.0 mL glucose-containing saline to yield final phospholipid concentrations of 1.0 or 2.5 mg/mL (for lipid peroxidation or x-ray diffraction analysis, respectively). Lipid suspensions were then vortexed for 3 min at ambient temperature to form MLVs.
The membrane structural effects of glucose and the various compounds examined in this study were measured at 0, 72, and 96 hour intervals. Membrane lipid vesicles were oriented for x-ray diffraction analysis as described by others (e.g., Herbette et al., Biophys. J., vol. 20(2), pages 245-272 (1977)). Briefly, a 100 μL aliquot (containing 250 μg MLV) was aspirated from each sample and transferred to a Lucite® sedimentation cell fitted with an aluminum foil substrate upon which a given sample could be collected by centrifugation. Samples were then loaded into a Sorvall AH-629 swinging bucket rotor (DuPont Corp., Wilmington, Del.) and centrifuged at 35,000 g, 5° C., for 90 min.
After centrifugal orientation, sample supernatants were aspirated and aluminum foil substrates, each supporting a single membrane pellet, were removed from the sedimentation cells. […]
The d-space for any given membrane multibilayer is a measurement of the unit cell periodicity of the membrane lipid bilayer (e.g., the distance from the center of one lipid bilayer to the next including surface hydration), and is calculated from Bragg's Law, hλ=2 d sin θ, where h is the diffraction order, λ is the wavelength of the x-ray radiation (1.54 Å), d is the membrane lipid bilayer unit cell periodicity, and θ is the Bragg angle equal to one-half the angle between the incident beam and scattered beam.
The presence of cholesterol domains in a given membrane sample results in the production of distinct Bragg (diffraction) peaks having singular periodicity values of 34 and 17 Å (typically referred to as first- and second-order cholesterol domain peaks). Under the specific temperature and relative humidity conditions established for these experiments, the second-order, 17 Å cholesterol domain peak was well-delineated from other, neighboring cholesterol and phospholipid diffraction peaks and was thus used to quantitate relative cholesterol domain peak intensity. […]

[2] = system: human sdLDL; assay: Copper-induced sdLDL oxidation, TBARS (Example 6); format: biochemical; settings: 1.0 μM to 10.0 μM; 2 hr copper oxidation
Description: An experiment to study the antioxidant effect of EPA in small dense LDL (“sdLDL”) was performed. EPA was purchased from Sigma-Aldrich (Saint Louis, Mo.) and solubilized in ethanol to 1 mM under nitrogen atmosphere. Vitamin E (α-tocopherol) was purchased from Sigma-Aldrich and prepared in ethanol at 1.0 mM (c=3.06×10^4 M^−1 cm^−1 at 294 nm) just prior to experimental use. All test compounds were further diluted in ethanol or aqueous buffer as needed.
Venous blood was collected from healthy volunteers into vacutainer tubes containing sodium EDTA. Plasma was separated by centrifugation at 3000 g for 25 min at 4° C. and adjusted to a density of 1.020 g/mL with KBr. […]
LDL and sdLDL subfractions (0.6 mL each) were incubated with either 10 μL vehicle (ethanol) or 10 μL drug stock solution for 30 min to 1 hr at 37° C. […] Sample TBARS concentrations were determined spectrophotometrically by measuring sample absorbances against a standard curve derived from the hydrolysis of 1,1,3,3-tetramethoxypropane.
Data are presented as mean±S.D. for (N) separate samples or treatment groups. Differences between groups were analyzed using the two-tailed, Student's t-test (for comparisons between only two groups) or ANOVA followed by Dunnett or Student-Newman-Keuls multiple comparisons post-hoc analysis (for comparisons between three or more groups). […]

Compound | effect on membrane structure compared to control [1] | sdLDL oxidation [2] | cholesterol domain peaks ([1]; 96 hours of oxidative conditions) | effect on cholesterol domain formation (cholesterol domain peak intensity) compared to control ([1]; any experimental time point (FIG. 5))
CC/C=C\C/C=C\C/C=C\C/C=C\C/C=C\CCCC(=O)O [EPA, cis-5,8,11,14,17-Eicosapentaenoic acid] | no appreciable effect on membrane structure | inhibited sdLDL oxidation over a broad range of concentrations |  | 
Cc1c(C)c2c(c(C)c1O)CC[C@@](C)(CCC[C@H](C)CCC[C@H](C)CCCC(C)C)O2 [vitamin E, α-tocopherol, reference compound] | no appreciable effect on membrane structure | did not inhibit sdLDL oxidation except at the highest concentration | disproportionately greater | no significant effect on cholesterol domain formation
